Values quoted from earlier work as cited in patent US20210386978A1, “Drug Delivery Devices and Systems for Local Drug Delivery to the Upper Urinary Tract” (TARIS Biomedical LLC, priority 2018, published 2021).
Counter-ions that a name gives are not always drawn.

Details: solubility terms in the same block are defined in water at 37° C.

Compound	approximate solubility [mg/mL]
Nc1ccn([C@@H]2O[C@H](CO)[C@@H](O)C2(F)F)c(=O)n1 [gemcitabine HCl]	~80
Nc1ccn([C@@H]2O[C@H](CO)[C@@H](O)C2(F)F)c(=O)n1 [gemcitabine base]	~15
Cc1ccc(O)c([C@H](CCN(C(C)C)C(C)C)c2ccccc2)c1 [tolterodine tartrate]	~12
O=C(O[C@H]1C[C@H]2CC[C@@H](C1)[N+]21CCCC1)C(O)(c1ccccc1)c1ccccc1 [trospium chloride]	~500
